# Test results from US20180256515A1, “ORAL AMPHETAMINE COMPOSITION” (Adare Pharmaceuticals, Inc., priority 2017, published 2018).
# Where a name gives a salt, the structure may show the parent alone. Read-outs that look alike come from different tables or passages of the source.
# Test: Water solubility (statement)
smiles,measurement,setting,value
"CC(N)Cc1ccccc1 (racemic) [Amphetamine sulfate, racemic amphetamine sulfate]",solubility,,freely soluble
same,solubility,listed as Racemic amphetamine sulfate,freely water soluble
